These are literature values, as cited in patent US6683112B2, “Gabapentin prodrugs and formulations” (Andrx Corporation, priority 2000, dated 2004).

For data set [1] the following is noted: in water and in both basic and acidic conditions.

Regarding `NCC1(CC(=O)O)CCCCC1` [Gabapentin, 1-(aminomethyl)cyclohexaneacetic acid], the solubility result in data set [1] is listed as “highly soluble”. Moreover, under “in humans”, the metabolism result is listed as “not extensively metabolized” and the route of elimination entry is on record as “eliminated via renal excretion essentially unchanged”. Further, the oral bioavailability result (typical dosage range 300-600 mgs T.I.D.) is given as “approximately sixty”. Further, the elimination half life result (unaltered by dose or following multiple dosing) was “five to seven”.
